These results are taken from patent publication US20200022967A1, “Use of 2-carboxamide cycloamino urea derivatives in the treatment of EGFR dependent diseases or diseases that have acquired resistance to agents that target EGFR family members” (Novartis AG, priority 2010, published 2020).

The structures appear in SMILES notation.

In one data set the test system is BT474. The data set is described as follows: Cell proliferation in BT474 breast cancer model. It is filed as cell-based, human.
For the next data set, the system named is BT-474 tumors. The experiment in a line: BT474 orthotopic xenograft, Compound A and trastuzumab combination (Example 3). It is filed as in vivo, mice. How it is done: The Compound was fully dissolved in NMP. Then, PEG300 and liquified Solutol were added (in sequence with vortexing after addition of each reagent).
Where applicable, data is presented as mean±SEM.

A further data set relates to HBCx-5 xenograft tumor. The data set is described as follows: HBCx-5 breast cancer xenograft, antitumor activity (Example 5). It is filed as in vivo, mice. The following applies: Compound A 50 mg/kg p.o. daily for 42 days, single agent; p<0.001. As for the experimental part:
Compound A was suspended at mg/ml in 0.5% methylcellulose (Sigma Aldrich, St. Louis, Mo.). It was homogenized by stirring vortexing and sonication. The suspension was stored at 4° C. for 7 days protected from light. […] Stock solution at 21 mg/ml was diluted just before administration at 1 mg/ml with sterile water for injection. Capecitabine (Xeloda®, Roche) at […] was kept at 4° C. protected from light. Capecitabine pellets were crushed and suspended in NaCl 0.9%.
Dose was body weight adjusted at each injection.
Capecitabine was administered by oral gavage (p.o.) at […], five times per week for two weeks (i.e., five consecutive dosing days/week). After a one week rest, a second treatment cycle was performed.

Data set [1] in a line: Body weight nadir and deaths in NCI-N87 lapatinib study (Example 6).
Experimental: Treatments started eight days post tumor cell implantation and lasted for 59 consecutive days or until tumor volume=1000 mm^3. […] For the b.i.d. dosing schedule, the first dose was given p.m. on Day 1 and last dose a.m. on Day 22. […] Body weights were recorded on Days 1-5, on each treatment day (except weekends), and twice weekly thereafter until end of the study.
[2] abbreviates: Group 2: Compound A 12.5 mg/kg p.o. once daily.
[3] abbreviates: Group 3: Compound A 25 mg/kg p.o. once daily.

With `Cc1nc(NC(=O)N2CCC[C@H]2C(N)=O)sc1-c1ccnc(C(C)(C)C(F)(F)F)c1` [Compound A, (S)-Pyrrolidine-1,2-dicarboxylic acid 2-amide 1-({4-methyl-5-[2-(2,2,2-trifluoro-1,1-dimethyl-ethyl)-pyridin-4-yl]-thiazol-2-yl}-amide)], the cell death entry in the data set on BT474 (BT474, overexpressed ErbB2) is “induces cell death”. The GI50 with BT474 (BT474 breast cancer model, ErbB2 amplified, read-out: median GI50) was found to be 139 ± 82 nM. Further, the “Change Tumor Volume” value in the data set with BT-474 tumors (B: Compound A 12.5 mg/kg p.o. daily, control C 584.2) came out at 125.7. Further, the T/C is 21.5% in the data set with BT-474 tumors (Compound A 12.5 mg/kg p.o. daily, single agent) and 17.57% with HBCx-5 xenograft tumor. In addition, in the data set on BT-474 tumors (Compound A 50 mg/kg p.o. daily, single agent, p<0.05 Mann-Whitney), the antitumor effect entry is given as “statistically significant antitumor effect”. For the same compound, the B/C in the data set with BT-474 tumors (change tumor volume ratio, Compound A 12.5 mg/kg vs control) amounted to 0.215. For the same compound, the “Deaths NTR = non-treatment related” value in data set [1] (setting [2]) and in data set [1] (setting [3]) was “NTR: 1” each time. Also, the “Deaths TR = treatment-related” value in data set [1] (setting [2]) and in data set [1] (setting [3]) was “TR: 1” throughout. The “Mean BW Nadir (lowest group mean BW)” value in data set [1] (Group 3: Compound A 25 mg/kg p.o. once daily, Day 14) is −8.4%.

As usually defined, the GI50 is the concentration giving 50% growth inhibition. By T/C is commonly meant the result in the treated group divided by that in the control group, in per cent.
